According to patent US6593084B2, “Carcinogen assay” (priority 1998, dated 2003):

Legend:
[1] = system: mouse liver; assay: Differential gene expression in livers of DMBA treated mice, Atlas membranes; details: liver of DMBA treated animal vs control animal
[2] = system: mice; details: cited from earlier work
[3] = system: Salmonella; details: cited from earlier work
[4] = system: mammalian cells; details: mammalian cells in vitro; cited from earlier work
[5] = system: primary mouse keratinocytes; assay: Differential display and Northern blot hybridization of mRNAs in treated primary mouse keratinocytes; assay type: cell-based; details: 24 hours treatment
Protocol: Cultures of newborn mouse keratinocytes were established essentially as described by H. Hennings (In Keratinocyte Methods, Cambridge University Press (1994), pages 21-23). Briefly, mice two to three days postpartum were sacrificed by metaphane narcosis, rinsed in 70% ethanol, and kept on ice. Skins were peeled off, stretched out and floated (with epidermis facing upward) on the surface of a 0.25% trypsin solution in Ca^+2, Mg^+2 free PBS overnight at 4° C. Skins were transferred to a sterile surface, the epidermis was separated from dermis, the epidermis was minced, and the mixture stirred in serum-free keratinocyte growth medium (KGM, Clonetics). This cell suspension was filtered through nylon gauze, cells were centrifuged (2,000 rpm for 5 min), resuspended in KGM with 20 μM Ca^+2 (20 KGM), and then the cells were counted and plated (approximately 2×10^6 per 10 cm plate coated with mouse collagen type IV in 20 KGM) and the cell cultures were incubated at 37° C. with a 7% CO2. After 16-24 hours, cells were washed in Ca^+2, Mg^+2 free phosphate buffered saline (PBS), and cultivated on 20 KGM, with the cell culture medium changed (that is, old medium discarded and fresh medium provided) each other day. For induction of terminal differentiation, medium was changed, usually on the sixth day of cultivation of the keratinocytes, to KGM containing 1.2 mM Ca^+2, and the keratinocytes were cultivated for 24 hours before RNA isolation.
For phorbol-myristate acetate (TPA) treatment, keratinocyte cultures were fed with 20 KGM containing 0.1 μg/ml of 12-O-tetradecanoyil-13-phorbol-acetate for 24 hours, before isolation of RNA.
Total RNA was isolated by acid phenol procedure using TRI Reagent™ (Molecular Research Center, Inc.) and according to manufacturer's instructions from (1) terminally differentiated keratinocytes, cultivated in KGM medium containing 1.2 mM Ca^+2 for 24 hours; (2) TPA-treated keratinocytes, cultivated in KGM containing 20 μM Ca^+2 and 0.1 μg/ml TPA for 24 hours; and (3) control keratinocyte cultures fed 24 hours before RNA isolation with 20 KGM containing, in some experiments, 0.05% DMSO (dimethyl sulphoxide).
Differential display of total RNAs from keratinocyte cultures (1), (2), and (3) was performed with Delta-RNA Fingerprinting Kit™ (Clontech) according to the manufacturer's instructions. Briefly, cDNAs were synthesized from total RNAs using Murine Moloney Leukemia Virus (MMLV) reverse transcriptase. Two dilutions of cDNA were prepared (diluted 10-fold and 40-fold). Each total RNA sample was used to synthesize cDNA that was amplified using polymerase chain reaction (PCR) methodology using P & T primers in presence of [α-^33P] dATP. […] The appearance of a band from a sample that was not present in the control lane indicated overexpression and the disappearance or reduction in intensity of a band indicated suppression of synthesis. The candidate bands were cut from the sequencing gel and reamplified using the original primer pairs. Following electrophoresis on agarose gels, reamplified DNA fragments were cut out and purified using a QIAEX II gel extraction kit™ (QIAGEN). The DNAs were labeled and used to confirm the differential expression by hybridization with Northern blots of Poly (A)^+ containing RNA isolated from total RNAs (1), (2), and (3). Equal quantities of these RNAs were electrophoresed on agarose gels and blotted to nitrocellulose filters. Equal loading of RNA was confirmed by hybridization with a β-actin probe, whose mRNA was assumed to be present in approximately equal amounts in all of the preparations. The blots were stripped of radiolabel and then used to confirm the differential synthesis of a fragment. Upon confirmation, the fragment was cloned into pCRII using the TA cloning kit™ (Introvitrogen). Cloned DNA fragments were sequenced with SequiTerm Excel II kit™ (Epicentre Technology).

Compound: Cc1c2ccccc2c(C)c2c1ccc1ccccc12 [DMBA, 7, 12-dimethyl benz[α] anthracene]
- differential pattern of gene expression in liver [1]: differential expression was observed

Compound: c1ccoc1 [Furan]
- induction of hepatocellular carcinomas [2]: induce hepatocellular carcinomas
- Salmonella mutagenicity test [3]: negative
- chromosomal aberrations [4]: induces
- gene mutations [4]: induces
- sister chromatide exchanges [4]: induces

Compound: ClC=C(Cl)Cl [TCE, trichloroethylene]
- induction of hepatocellular carcinomas [2]: induce hepatocellular carcinomas
- Salmonella mutagenicity test [3]: negative

Compound: CCCCCCCCCCCCCC(=O)O[C@@H]1[C@@H](C)[C@@]2(O)[C@@H](C=C(CO)C[C@]3(O)C(=O)C(C)=C[C@@H]23)[C@@H]2C(C)(C)[C@]12OC(C)=O [TPA, 12-O-tetradecanoyil-13-phorbol-acetate]
- Changes in Expression (Comparative to Untreated cells) ([5]; gene fragment 2552/4, 5.5 kb RNA): Suppressed in TPA-
- Changes in Expression (Comparative to Untreated cells) ([5]; gene fragment 2672/1, Mouse ESTs AA492919, AA607761): Suppressed in TPA-
- Changes in Expression (Comparative to Untreated cells) ([5]; gene fragment 4314, AA109991, AA561914, AA067670, AA864127): Overexpressed in
- Changes in Expression (Comparative to Untreated cells) ([5]; gene fragment 19102/3, Mouse ESTs AA038613, W14382): Suppressed in TPA-
- Changes in Expression (Comparative to Untreated cells) ([5]; gene fragment 31774/6/8, 6 kb RNA, Mouse ESTs AA423711, W82493): Suppressed in TPA-
- Changes in Expression (Comparative to Untreated cells) ([5]; gene fragment 31777, Mouse EST AA073833): Overexpressed in
- Changes in Expression (Comparative to Untreated cells) ([5]; gene fragment 83442, Mouse Connexin 26): Overexpressed in
- Changes in Expression (Comparative to Untreated cells) ([5]; gene fragment 110176/4, homologous to Mouse Cytokeratin Endo A): Suppressed in TPA-
- Changes in Expression (Comparative to Untreated cells) ([5]; gene fragment 3177715, Mouse ESTs AA423711, AA637015): Suppressed in TPA-
